In the NIST ThermoML archive (doi:10.1021/je060271a):

Details: 303.15 K, Liquid, Vibrating tube method

CCCCCCC(=O)OCC(COC(=O)CCCCCC)(COC(=O)CCCCCC)COC(=O)CCCCCC [pentaerythritol tetraheptanoate]
Details | mass density [kg/m3]
21619 kPa | 983.7
21662 kPa | 983.7
21713 kPa | 983.7
21752 kPa | 983.7
21789 kPa | 983.5
21831 kPa | 983.9
21867 kPa | 983.8
21902 kPa | 983.8
22017 kPa | 983.9
22097 kPa | 984
22133 kPa | 983.9
22169 kPa | 984.1
22213 kPa | 984
22250 kPa | 983.9
22286 kPa | 984.1
22330 kPa | 984.1
22368 kPa | 984.2
22406 kPa | 984.1
22450 kPa | 984.2
22567 kPa | 984.2
22651 kPa | 984.2
22689 kPa | 984.3
22735 kPa | 984.3
22774 kPa | 984.3
22813 kPa | 984.3
22853 kPa | 984.3
22901 kPa | 984.4
23031 kPa | 984.5
23066 kPa | 984.4
23098 kPa | 984.5
23130 kPa | 984.5
23162 kPa | 984.4
23201 kPa | 984.5
23233 kPa | 984.6
23266 kPa | 984.7
23304 kPa | 984.6
23337 kPa | 984.5
23376 kPa | 984.7
23409 kPa | 984.6
23442 kPa | 984.6
23475 kPa | 984.8
23516 kPa | 984.8
23549 kPa | 984.7
23582 kPa | 984.8
23622 kPa | 984.7
23797 kPa | 984.9
23831 kPa | 985
23873 kPa | 984.9
23908 kPa | 985
23943 kPa | 985
23985 kPa | 985
24019 kPa | 984.9
24054 kPa | 985
24201 kPa | 985.1
24243 kPa | 985.2
24278 kPa | 985.2
24320 kPa | 985.2
24392 kPa | 985.2
24436 kPa | 985.2
24472 kPa | 985.4
24509 kPa | 985.1
24545 kPa | 985.2
24588 kPa | 985.3
24624 kPa | 985.4
24661 kPa | 985.3
24706 kPa | 985.3
24743 kPa | 985.5
24780 kPa | 985.5
24825 kPa | 985.4
24863 kPa | 985.4
24901 kPa | 985.4
24947 kPa | 985.5
24984 kPa | 985.5
25022 kPa | 985.6
25060 kPa | 985.5
25106 kPa | 985.6
25144 kPa | 985.5
25182 kPa | 985.7
25228 kPa | 985.7
25267 kPa | 985.6
25306 kPa | 985.6
25353 kPa | 985.7
25392 kPa | 985.7
25431 kPa | 985.8
25472 kPa | 985.7
25520 kPa | 985.8
25560 kPa | 986
25601 kPa | 986
25648 kPa | 985.9
25688 kPa | 985.8
25729 kPa | 985.9
25778 kPa | 985.9
25818 kPa | 986
25860 kPa | 986
25901 kPa | 986.1
25951 kPa | 986
25994 kPa | 986
26038 kPa | 986
26079 kPa | 986.1
26130 kPa | 986.1
26172 kPa | 986.2
26215 kPa | 986.2
26266 kPa | 986.2
26309 kPa | 986.3
26347 kPa | 986.3
26391 kPa | 986.3
26429 kPa | 986.4
26466 kPa | 986.4
26512 kPa | 986.4
26551 kPa | 986.4
26590 kPa | 986.3
26628 kPa | 986.5
26666 kPa | 986.5
26712 kPa | 986.5
26749 kPa | 986.4
26795 kPa | 986.4
26834 kPa | 986.6
26872 kPa | 986.6
26910 kPa | 986.6
26957 kPa | 986.6
26996 kPa | 986.6
27043 kPa | 986.5
27083 kPa | 986.7
27122 kPa | 986.7
27169 kPa | 986.7
27209 kPa | 986.8
27249 kPa | 986.7
27289 kPa | 987
27337 kPa | 986.8
27376 kPa | 986.8
27425 kPa | 986.9
27465 kPa | 987
27506 kPa | 986.9
27555 kPa | 986.8
27596 kPa | 986.9
27638 kPa | 986.9
27679 kPa | 987.1
27728 kPa | 987
27770 kPa | 987
27811 kPa | 987.1
27861 kPa | 987.1
27904 kPa | 987
27954 kPa | 987.1
27997 kPa | 987.2
28082 kPa | 987.3
28133 kPa | 987.4
28176 kPa | 987.3
28221 kPa | 987.4
28273 kPa | 987.3
28316 kPa | 987.3
28360 kPa | 987.4
28404 kPa | 987.3
28457 kPa | 987.4
28501 kPa | 987.5
28545 kPa | 987.5
28598 kPa | 987.5
28642 kPa | 987.5
28687 kPa | 987.5
28740 kPa | 987.6
28785 kPa | 987.6
28832 kPa | 987.7
28886 kPa | 987.6
28932 kPa | 987.7
28977 kPa | 987.6
29023 kPa | 987.9
29079 kPa | 987.7
29125 kPa | 987.7
29181 kPa | 987.8
29227 kPa | 987.9
29274 kPa | 987.9
29321 kPa | 987.9
29379 kPa | 987.9
29475 kPa | 988
29523 kPa | 988.1
29581 kPa | 988
29630 kPa | 988
29679 kPa | 988.1
29739 kPa | 988.1
29790 kPa | 988.1
29841 kPa | 988.3
29903 kPa | 988.1
29949 kPa | 988.3
29986 kPa | 988.3
30029 kPa | 988.3
30067 kPa | 988.3
30103 kPa | 988.3
30138 kPa | 988.3
30182 kPa | 988.4
30218 kPa | 988.3
30253 kPa | 988.3
30297 kPa | 988.2
30334 kPa | 988.4
30370 kPa | 988.5
30407 kPa | 988.5
30451 kPa | 988.5
30489 kPa | 988.5
30527 kPa | 988.5
30576 kPa | 988.6
30613 kPa | 988.5
30651 kPa | 988.6
30698 kPa | 988.6
30738 kPa | 988.8
30778 kPa | 988.7
30814 kPa | 988.7
30846 kPa | 988.7
30873 kPa | 988.8
30905 kPa | 988.7
30932 kPa | 988.8
30958 kPa | 988.8
30990 kPa | 988.8
31018 kPa | 988.8
31045 kPa | 988.8
31072 kPa | 988.9
31105 kPa | 988.9
31132 kPa | 988.9
31159 kPa | 988.8
31192 kPa | 989
31220 kPa | 988.9
31252 kPa | 989
31280 kPa | 988.9
31308 kPa | 989.1
31335 kPa | 989
31369 kPa | 989.1
31398 kPa | 988.8
